Data on eleven molecules can be found in US12129246B1, “Hydroquinazoline derivatives for the treatment of a disease or disorder” (Novartis AG, priority 2023, dated 2024).

Read-outs that look alike come from different tables or passages of the source.

Test [1] addresses monkey NPR1 (Macaca fascicularis, UniProt A0A7N9DBT9). Kind of test: Cellular cGMP production assay, monkey NPR1 expressing CHO-K1 cells (CisBio HTRF). The test is classed as cell-based. Conditions: for Monkey NPR1 Amax (% of ANP): maximum cGMP production as percentage of the maximum cGMP produced with ANP. In outline:
(§1)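 12-pt 3-fold dose-response, top 30 μM; buffer PBS + 0.1% BSA + 1 mM IBMX (PDE inhibitor); 30 min, 37 °C. Lyse, add cGMP-d2 + anti-cGMP-cryptate, 1 h RT. Ex 317 / em 665 nm; Delta F converted to cGMP via calibrator standard curve.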
(Time-resolved FRET reads energy transfer from a long-lived donor to a nearby acceptor.)

The target of test [2] is T1, human NPR1 (Homo sapiens, UniProt P16066).
T1 construct: host or cells: CHO-K1
T1 sequence (P16066 33-1061): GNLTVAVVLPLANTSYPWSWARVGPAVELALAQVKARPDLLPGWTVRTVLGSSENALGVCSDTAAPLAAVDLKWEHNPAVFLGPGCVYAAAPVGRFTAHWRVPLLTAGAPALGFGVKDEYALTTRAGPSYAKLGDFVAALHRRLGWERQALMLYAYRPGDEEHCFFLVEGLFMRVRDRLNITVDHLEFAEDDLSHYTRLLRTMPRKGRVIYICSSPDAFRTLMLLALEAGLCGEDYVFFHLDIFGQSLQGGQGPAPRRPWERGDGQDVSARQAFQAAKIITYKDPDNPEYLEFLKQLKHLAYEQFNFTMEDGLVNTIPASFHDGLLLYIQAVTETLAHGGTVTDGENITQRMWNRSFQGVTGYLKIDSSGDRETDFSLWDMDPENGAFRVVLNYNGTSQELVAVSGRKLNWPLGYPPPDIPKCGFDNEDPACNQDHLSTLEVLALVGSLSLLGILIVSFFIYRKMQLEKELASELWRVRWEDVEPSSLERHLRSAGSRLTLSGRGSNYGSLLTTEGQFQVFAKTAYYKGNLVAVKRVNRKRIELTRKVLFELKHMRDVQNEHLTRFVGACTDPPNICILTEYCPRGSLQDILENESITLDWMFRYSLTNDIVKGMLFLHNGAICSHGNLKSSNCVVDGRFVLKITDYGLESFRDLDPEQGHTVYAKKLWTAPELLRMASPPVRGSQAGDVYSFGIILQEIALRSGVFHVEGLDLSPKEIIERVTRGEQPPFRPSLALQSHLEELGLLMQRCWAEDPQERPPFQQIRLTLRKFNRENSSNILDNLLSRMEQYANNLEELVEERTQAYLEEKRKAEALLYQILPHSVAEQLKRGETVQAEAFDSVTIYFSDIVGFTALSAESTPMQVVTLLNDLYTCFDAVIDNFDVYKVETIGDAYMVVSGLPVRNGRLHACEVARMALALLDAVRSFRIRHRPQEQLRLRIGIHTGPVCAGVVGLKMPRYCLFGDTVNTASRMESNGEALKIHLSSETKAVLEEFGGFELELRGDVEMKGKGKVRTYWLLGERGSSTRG
The test can be described thus: Cellular cGMP production assay, human NPR1 expressing CHO-K1 cells (CisBio HTRF). It is filed as cell-based. The note with it: for AC50: cGMP production, 30 min at 37° C., 12-point dose-response from 30 μM; for Human NPR1 Amax (% of ANP): maximum cGMP production as percentage of the maximum cGMP produced with ANP. In outline: as §1

Where [3] appears, read: cGMP production, monkey NPR1 CHO-K1 cells, 30 min at 37° C., 12-point dose-response from 30 μM, read-out: Monkey NPR1 AC50.

Sequence of monkey NPR1 (A0A7N9DBT9 entry or part of it): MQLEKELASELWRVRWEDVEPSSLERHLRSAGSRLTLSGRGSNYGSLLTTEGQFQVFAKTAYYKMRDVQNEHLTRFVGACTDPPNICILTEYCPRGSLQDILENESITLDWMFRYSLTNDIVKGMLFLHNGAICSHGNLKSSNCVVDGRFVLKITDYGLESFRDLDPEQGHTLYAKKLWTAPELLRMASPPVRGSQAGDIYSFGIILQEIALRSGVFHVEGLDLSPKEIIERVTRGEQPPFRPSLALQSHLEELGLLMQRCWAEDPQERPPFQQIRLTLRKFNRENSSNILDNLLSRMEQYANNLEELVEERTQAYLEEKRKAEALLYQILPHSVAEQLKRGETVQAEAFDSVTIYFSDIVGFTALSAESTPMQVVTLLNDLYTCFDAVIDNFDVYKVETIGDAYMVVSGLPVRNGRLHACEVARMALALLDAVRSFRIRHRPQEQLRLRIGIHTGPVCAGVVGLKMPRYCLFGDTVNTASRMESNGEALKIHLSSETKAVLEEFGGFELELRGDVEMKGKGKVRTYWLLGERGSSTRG

For orientation: AC50 means the midpoint of the concentration-response curve, whichever way the signal moves. With `CC[C@H]([C@H]1CC[C@H](C(=O)O)CC1)N(C)c1nc2c(c(N[C@@H](CN3CCCCC3)c3cnn(CC)c3)n1)C[C@@H](c1cccc(F)c1)CC2` [Compound 116, (1R,4r)-4-((R)-1-(((S)-4-(((R)-1-(1-ethyl-1H-pyrazol-4-yl)-2-(piperidin-1-yl)ethyl)amino)-6-(3-fluorophenyl)-5,6,7,8-tetrahydroquinazolin-2-yl)(methyl)amino)propyl)cyclohexane-1-carboxylic acid], in test [1] (setting [3]), the AC50 was found to be 0.471 µM. Also, the “Monkey NPR1 Amax (% of ANP)” value in test [1] (monkey NPR1 CHO-K1 cells) is recorded as 104.029 % of ANP. In test [2], half-maximal activity (AC50) was put at 0.477 µM and the “Human NPR1 Amax (% of ANP)” value is given as 95.817 % of ANP.
Consider `CC[C@H]([C@H]1CC[C@H](C(=O)O)CC1)N(C)c1nc2c(c(N[C@@H](CN3CCCCC3)c3cnn(CC)c3)n1)C[C@H](c1cccc(F)c1)CC2` [Compound 91, (1R,4r)-4-((R)-1-(((R)-4-(((R)-1-(1-ethyl-1H-pyrazol-4-yl)-2-(piperidin-1-yl)ethyl)amino)-6-(3-fluorophenyl)-5,6,7,8-tetrahydroquinazolin-2-yl)(methyl)amino)propyl)cyclohexane-1-carboxylic acid], for which, in test [1] (setting [3]), the AC50 worked out at 0.184 µM. Also, in test [1] (monkey NPR1 CHO-K1 cells), the “Monkey NPR1 Amax (% of ANP)” value is 102.129 % of ANP. In test [2], the half-maximal activity concentration (AC50) was determined as 0.315 µM and the “Human NPR1 Amax (% of ANP)” value is given as 98.135 % of ANP.
The corresponding values for `CC[C@@H](Nc1nc2c(c(N[C@@H](CNC3CCOCC3)c3ccccc3)n1)C[C@H](c1ccccc1)CC2)[C@H]1CC[C@H](C(=O)O)CC1` [Compound 166, (1R,4r)-4-((R)-1-(((R)-6-phenyl-4-(((R)-1-phenyl-2-((tetrahydro-2H-pyran-4-yl)amino)ethyl)amino)-5,6,7,8-tetrahydroquinazolin-2-yl)amino)propyl)cyclohexane-1-carboxylic acid] are 1.98 µM, 96.913 % of ANP, 2 µM and 101.913 % of ANP.
Take `CC[C@@H](N(C)c1nc2c(c(N[C@@H](CN3CCC[C@H](C)C3)c3cnn(C)c3)n1)C[C@H](c1ccccc1)CC2)C12CC(C(=O)O)(C1)C2` [Compound 44, 3-((R)-1-(methyl((R)-4-(((R)-1-(1-methyl-1H-pyrazol-4-yl)-2-((S)-3-methylpiperidin-1-yl)ethyl)amino)-6-phenyl-5,6,7,8-tetrahydroquinazolin-2-yl)amino)propyl)bicyclo[1.1.1]pentane-1-carboxylic acid]: the half-maximal activity concentration (AC50) in test [1] (setting [3]) turned out to be 0.102 µM. For the same molecule, the “Monkey NPR1 Amax (% of ANP)” value in test [1] (monkey NPR1 CHO-K1 cells) is reported as 107.199 % of ANP. Also, in test [2], the half-maximal activity concentration (AC50) worked out at 0.173 µM and the “Human NPR1 Amax (% of ANP)” value was 99.256 % of ANP.
As for `CC[C@@H](Nc1nc2c(c(N[C@@H](CN3C4CCCC3CC(O)C4)c3cnn(CC)c3)n1)C[C@H](c1cccc(F)c1)CC2)[C@H]1CC[C@H](C(=O)O)CC1` (stereo partly drawn) [Compound 117, (1R,4r)-4-((1R)-1-(((6R)-4-(((1R)-1-(1-ethyl-1H-pyrazol-4-yl)-2-((1R,5S)-3-hydroxy-9-azabicyclo[3.3.1]nonan-9-yl)ethyl)amino)-6-(3-fluorophenyl)-5,6,7,8-tetrahydroquinazolin-2-yl)amino)propyl)cyclohexane-1-carboxylic acid], in test [1], the AC50 came to 0.5 µM. Further, the “Monkey NPR1 Amax (% of ANP)” value in test [1] (monkey NPR1 CHO-K1 cells) was 109.499 % of ANP. Also, in test [2], the AC50 is 0.524 µM and the “Human NPR1 Amax (% of ANP)” value is listed as 100.635 % of ANP.
For `CC[C@H]([C@H]1CC[C@H](C(=O)O)CC1)N(C)c1nc2c(c(N[C@@H](CN3CCC[C@H](C)C3)c3cnn(C)c3)n1)C[C@@H](c1ccccc1)CC2` [Compound 101, (1R,4r)-4-((R)-1-(methyl((S)-4-(((R)-1-(1-methyl-1H-pyrazol-4-yl)-2-((S)-3-methylpiperidin-1-yl)ethyl)amino)-6-phenyl-5,6,7,8-tetrahydroquinazolin-2-yl)amino)propyl)cyclohexane-1-carboxylic acid], the half-maximal activity concentration (AC50) in test [1] (setting [3]) was 0.335 µM. Also, the “Monkey NPR1 Amax (% of ANP)” value in test [1] (monkey NPR1 CHO-K1 cells) is on record as 101.476 % of ANP. Further, in test [2], the concentration at half-maximal activity (AC50) amounted to 0.377 µM and the “Human NPR1 Amax (% of ANP)” value is recorded as 93.777 % of ANP.
The corresponding values for `C[C@@H](Nc1nc2c(c(N[C@@H](CN3CCCC3)c3ccccc3)n1)C[C@H](c1ccccc1)CC2)c1ccc(C(=O)O)cc1` [Compound 159, 4-((R)-1-(((R)-6-phenyl-4-(((R)-1-phenyl-2-(pyrrolidin-1-yl)ethyl)amino)-5,6,7,8-tetrahydroquinazolin-2-yl)amino)ethyl)benzoic acid] are 0.503 µM, 98.468 % of ANP, 1.58 µM and 92.446 % of ANP.
`CC[C@@H](Nc1nc2c(c(N[C@@H](CN3CCCCC3)c3ccccc3)n1)C[C@@H](c1cccc(F)c1)CC2)[C@H]1CC[C@H](C(=O)O)CC1` [Compound 37, (1R,4r)-4-((R)-1-(((S)-6-(3-fluorophenyl)-4-(((R)-1-phenyl-2-(piperidin-1-yl)ethyl)amino)-5,6,7,8-tetrahydroquinazolin-2-yl)amino)propyl)cyclohexane-1-carboxylic acid]: the AC50 in test [1] (setting [3]) stood at 0.158 µM. Also, the “Monkey NPR1 Amax (% of ANP)” value in test [1] (monkey NPR1 CHO-K1 cells) is given as 107.224 % of ANP. Moreover, in test [2], half-maximal activity (AC50) was put at 0.15 µM and the “Human NPR1 Amax (% of ANP)” value is 105.989 % of ANP.
Molecule `CC[C@H]([C@H]1CC[C@H](C(=O)O)CC1)N(C)c1nc2c(c(N[C@@H](CN3C4CCCC3CC4)c3cnn(C)c3)n1)CN(c1ccc(F)cc1)CC2` [Compound 80, (1R,4r)-4-((1R)-1-((4-(((1R)-2-(8-azabicyclo[3.2.1]octan-8-yl)-1-(1-methyl-1H-pyrazol-4-yl)ethyl)amino)-6-(4-fluorophenyl)-5,6,7,8-tetrahydropyrido[4,3-d]pyrimidin-2-yl)(methyl)amino)propyl)cyclohexane-1-carboxylic acid] had an AC50 in test [1] of 0.137 µM. For the same molecule, the “Monkey NPR1 Amax (% of ANP)” value in test [1] (monkey NPR1 CHO-K1 cells) is 102.546 % of ANP. Also, in test [2], half-maximal activity (AC50) was put at 0.267 µM and the “Human NPR1 Amax (% of ANP)” value was 94.876 % of ANP.
Regarding `CC[C@H]([C@H]1CC[C@H](C(=O)O)CC1)N(C)c1nc2c(c(N[C@@H](CN3C4CCCC3CC4)c3cnn(C)c3)n1)C[C@H](c1cccc(F)c1)CC2` [Compound 33, (1R,4r)-4-((1R)-1-(((6R)-4-(((1R)-2-(8-azabicyclo[3.2.1]octan-8-yl)-1-(1-methyl-1H-pyrazol-4-yl)ethyl)amino)-6-(3-fluorophenyl)-5,6,7,8-tetrahydroquinazolin-2-yl)(methyl)amino)propyl)cyclohexane-1-carboxylic acid], half-maximal activity in test [1] (AC50) was put at 0.104 µM. The “Monkey NPR1 Amax (% of ANP)” value in test [1] (monkey NPR1 CHO-K1 cells) is given as 106.934 % of ANP. Further, in test [2], the AC50 stood at 0.145 µM and the “Human NPR1 Amax (% of ANP)” value was 99.163 % of ANP.
Regarding `CC[C@H]([C@H]1CC[C@H](C(=O)O)CC1)N(C)c1nc2c(c(N[C@@H](CN3C4CCCC3CCC4)c3cnn(C)c3)n1)C[C@H](c1cccc(F)c1)CC2` [Compound 29, (1R,4r)-4-((R)-1-(((R)-4-(((R)-2-((1S,5S)-9-azabicyclo[3.3.1]nonan-9-yl)-1-(1-methyl-1H-pyrazol-4-yl)ethyl)amino)-6-(3-fluorophenyl)-5,6,7,8-tetrahydroquinazolin-2-yl)(methyl)amino)propyl)cyclohexane-1-carboxylic acid], the half-maximal activity concentration (AC50) in test [1] came out at 0.137 µM; in test [2], 0.14 µM. The “Monkey NPR1 Amax (% of ANP)” value in test [1] (monkey NPR1 CHO-K1 cells) was 128.079 % of ANP. Also, the “Human NPR1 Amax (% of ANP)” value in test [2] is on record as 102.911 % of ANP.
